Assays:
[1] = system: human retinal endothelial cells (HRECs); experiment: Serum depletion-induced apoptosis of HRECs, MTT assay and cell morphology; assay type: cell-based; conditions: for ability of inhibiting apoptosis (MTT assay): 48 hours after treatment; for ability of protecting retinal vascular endothelial cells from apoptosis induced by the removal of serum (MTT): serum-free medium, 0.1-10 μg/mL
Experimental: HRECs (3×10^4 cells/well) were seeded on a 24-well plate in M199 medium containing 20% fetal bovine serum. The next day, the cells were transferred to a medium containing […] Sac0601 (FIG. 4a) or 0.1-10 μg/mL Sac0504 (FIG. 4b). Cell viability was determined by MTT assay 48 hours later. FIGS. 5a-5c show the result of observing cell morphologies.
Human umbilical vein endothelial cells (HUVECs) and human retinal endothelial cells (HRECs) purchased from Cell Systems (USA) were seeded on a 100-mm culture dish in M199 medium (Life Technologies, USA) containing 20% (w/v) fetal bovine serum (FBS, HyClone, Canada), 100 units/mL penicillin (Invitrogen, USA), 100 μg/mL streptomycin (invitrogen, USA), 3 ng/mL basic fibroblast growth factor (bFGF, Upstate Biotechnology, USA) and 5 units/mL heparin and cultured in a 5% CO2 incubator at 37° C.
Also, HRECs were treated with the compounds synthesized in Synthesis Example 5 and MIT assay was performed 48 hours later in the same manner as described above.
Also, the acid compound wherein the methyl ester formed by the introduction of the ester group was hydrolyzed was synthesized to provide improved water solubility and activity. MYT assay was performed for the compounds synthesized in Synthesis Example 6 in the same manner as described above 48 hours after treatment.
Their ability of inhibiting apoptosis was confirmed again for HRECs. HRECs (3×10^4 cells/well) were seeded on a 24-well plate in M199 medium (1 mL) containing 20% fetal bovine serum, Next day, the cells were transferred to serum-free M199 medium containing 0.1-10 μg/ml. Sac060.1 (FIG. 4a) or 0.1-10 μg; mL Sac0504 (FIG. 4b). Cell viability was determined by MTF assay in the same manner as in Test Example 1.
Their ability of inhibiting apoptosis was confirmed again for HRECs.

HUVECs = experiment: VEGF-induced actin stress fibers in HUVECs, rhodamine phalloidin staining; assay type: cell-based, human; conditions: 10 μg/mL pretreatment 1 hour, 20 ng/mL VEGF
Experimental: Confluent HUVECs were pretreated with the compounds (10 μg/mL) for 60 minutes before treating with 20 ng/mL VEGF (1 hr). The cells were then stained with rhodamine phalloidin.
It is known that the change in the actin structure of the cytoskeleton is closely related with the permeability of vascular endothelial cells. Increased permeability of vascular endothelial cells leads to increased formation of actin stress fibers and decrease of cortical actin ring structures. Based on this, the ability of inhibiting vascular endothelial permeability of the synthesized Rk1 derivatives was screened. Confluent HUVECs were pretreated with the synthesized compounds (10 μg/mL) for 1 hour before treating with 20 ng/mL VEGF (Upstate Biotechnology). Subsequently, the cells were fixed with 4% paraformaldehyde for 20 minutes at room temperature and washed 3 times with PBS (pH 7.4). Then, the cells were permeabilized with 0.1% Triton X-100/PBS and reacted with 0.1 mg/mL rhodamine phalloidin (Molecular Probes) for 1 hour. Then, the cells were observed under a fluorescence microscope (Olympus).

HRECs [2] = experiment: VEGF-induced actin stress fibers in HRECs, rhodamine phalloidin staining; assay type: cell-based, human; conditions: 10 μg/mL 1 hour, then 20 ng/mL VEGF 1 hour
Experimental: Confluent HRECs were treated with 10 μg/mL Sac0601 or Sac0504 for 1 hour and then with 20 ng/mL VEGF for 1 hour. Subsequently, the cells were fixed at room temperature for 20 minutes with 4% paraformaldehyde and washed 3 times with PBS (pH 7.4). Then, the cells were permeabilized with 0.1% Triton X-100/PBS and reacted with 0.1 mg/mL rhodamine phalloidin (Molecular Probes) for 1 hour. Then, the cells were observed under a fluorescence microscope (Olympus). […] The analysis of actin cytoskeleton was conducted also for the compounds synthesized in Synthesis Example 5. Both Sac0904 and Sac0902 exerted effects in a concentration-dependent manner on the actin cytoskeleton which is closely related with vascular permeability (FIG. 7c).

[3] = system: diabetic mouse (DM) model; experiment: Retinal vascular permeability in diabetic mouse (DM) model, FITC-dextran; assay type: in vivo, C57/BL6 mouse; conditions: streptozotocin diabetic mouse, 10 μg into the vitreous body, 24 hours
Experimental: 10 μg of Sac0601 or 10 μg of Sac0504 was injected into the vitreous body of one eye of a diabetic mouse. 24 hours after the injection, 100 μL of FITC-dextran (30 mg/mL in filtered […]) was injected into the left ventricle. Then, the retina was observed under an optical microscope (FIG. 11a) and the fluorescence intensity was quantified (FIG. 11b).
For in vivo analysis of the effect of the synthesized Rk1 derivatives on increased vascular permeability in diabetic retinopathy, a diabetic mouse (DM) model was made by injecting streptozotocin to C57/BL6 mouse. Sac 0601 or Sac 0504 (10 μg) was injected into the vitreous body of the mouse. 24 hours later, 40-kDa FITC-dextran (30 mg/mL in PBS, Sigma) was injected into the left ventricle. After waiting for about 2 minutes for circulation of the tracer, the eyes were taken out and fixed immediately in 4% PFA. Then, the retina was taken out and observed under an optical microscope.

HRECs [4] = experiment: Stability of tight junctions (TJs) at cell-cell contacts in VEGF-treated HRECs, anti-occludin immunostaining; assay type: cell-based, human; conditions: 10 μg/mL 1 hour, then 20 ng/mL VEGF 1 hour
Experimental: In FIG. 8a, confluent HRECs were pretreated with Sac0601 (panel A in FIG. 8a) or Sac0504 (panel B in FIG. 8a) for 60 minutes before treating with 20 ng/ml. VEGF (1 hr). The cells were then stained with occludin antibody.
(§1) Confluent HRECs were treated with 10 μg/mL Sac0601 (FIG. 8a, panel A) or Sac0504 (FIG. 8a, panel B) for 1 hour and then with 20 ng/mL. VEGF for 1 hour. Subsequently, the cells were fixed at room temperature for 20 minutes with 4% paraformaldehyde and permeabilized with 0:1% Triton X-100/PBS. Then, the cells were incubated in PBS blocking solution containing 5% normal goat serum and 0.05% Tween-20. The cells were then reacted with anti-occludin antibody (Zymed Laboratories Inc.). The result was visualized with fluorescein-conjugated anti-mouse antibody (Vector Lab.). Also, western blotting was conducted for the cell lysate. The cell lysate was fractionated with SDS-PAGE and then transferred to polyvinyl difluoride membrane. The blocked membrane was reacted with anti-occludin antibody (Zymed Laboratories Inc.) and the immune response band was visualized with the chemiluminescence reagent obtained from Amersham Biosciences, Inc.

occludin = experiment: Occludin western blotting of HREC lysate; assay type: cell-based, human; conditions: HRECs, pretreatment 60 minutes, then 20 ng/mL VEGF 1 hour
Experimental: In FIG. 8b, confluent HRECs were pretreated with Sac0601 (10 μg/mL) for 60 minutes before treating with 20 ng/mL VEGF (1 hr). Then, cell lysate was subjected to western blotting using anti-occludin antibody.
as §1

HRECs [5] = experiment: Permeability of HRECs on transwell filter, labelled sucrose; assay type: cell-based, human; conditions: 10 μg/mL 60 minutes, with or without 20 ng/mL VEGF
Experimental: HRECs were seeded on a transwell filter. After reaching confluency, the cells were pretreated with Sac0601 (FIG. 10a) and Sac0504 (FIG. 10b) for 60 minutes before treating with 20 ng/ml. VEGF (1 hr). The permeability of HRECs was determined by measuring radiation of […] (1 μCi/μL) diffused below the transwell using a liquid scintillation counter.
The effect of Sac0601 and Sac0504 on vascular permeability was analyzed. HRECs were seeded on a transwell filter (Corning Costar). After reaching confluency, the cells were cultured in M199 medium containing 1% FBS for 3 hours and treated with 10 μg/mL. Sac0601 (FIG. 10a) or Sac0504 (FIG. 10b) for 60 minutes, with or without pretreatment with 20 ng/mL VEGF for 60 minutes. Then, [^3H]sucrose (1 μCi [0.037 MBq.]/μL or 50 μL (0.8 μCi [0.0296 MBq])/mL, Amersham Pharmacia) were added. 30 minutes later, radiation diffused below the transwell was measured using a liquid scintillation counter (Wallac, PerkinElmer). Measurement was made at least four locations.

| SMILES | ability of inhibiting apoptosis (MTT assay) [1] | ability of protecting retinal vascular endothelial cells from apoptosis induced by the removal of serum (MTT) [1] | cortical actin ring structure (HUVECs) | formation of actin stress fibers induced by VEGF (HUVECs) | formation of actin stress fibers induced by VEGF (HRECs [2]) | formation of cortical actin ring structures (HRECs [2]) | retinal vascular permeability induced in the DM [3] | ability of protecting the vascular endothelial cells ([1]; incl. observation of cell morphologies) | redistribution of TJs into the cytoplasm or destabilizing at the cell membrane induced by VEGF (HRECs [4]) | occludin (western blotting) (occludin) | permeability of the vascular endothelial cells (HRECs [5]) |
| --- | --- | --- | --- | --- | --- | --- | --- | --- | --- | --- | --- |
| CC(=O)OCC1OC(OC2CCC3(C)C(=CCC4C3CCC3(C)C4CCC3C(C)(O)CCCC(C)C)C2)C=CC1OC(C)=O (stereo not shown) [Sac0902] | better ability of inhibiting apoptosis than Sac0601 | showed the ability of protecting the vascular endothelial cells from apoptosis induced by the removal of serum in a concentration-dependent manner | increased the cortical actin ring structure | inhibited the formation of actin stress fibers induced by VEGF | inhibited the formation of actin stress fibers | increased the formation of cortical actin ring structures | only limitedly |  |  |  |  |
| CC(=O)OCC1OC(OC2CCC3(C)C(=CCC4C3CCC3(C)C(C(C)=CCCC(C)C)CCC43)C2)C=CC1OC(C)=O (stereo not shown) [Sac0904] | better ability of inhibiting apoptosis than Sac0601 | showed the ability of protecting the vascular endothelial cells from apoptosis induced by the removal of serum in a concentration-dependent manner | increased the cortical actin ring structure | inhibited the formation of actin stress fibers induced by VEGF | inhibited the formation of actin stress fibers | increased the formation of cortical actin ring structures | very effectively |  |  |  |  |
| COC(=O)CCC/C=C(\C)[C@H]1CCC2C3CC=C4C[C@@H](OC5C=C[C@H](OC(C)=O)[C@@H](COC(C)=O)O5)CC[C@]4(C)C3CC[C@@]21C (stereo partly shown) [Sac1004] | improved ability of inhibiting apoptosis over SAC-0904 | showed the ability of protecting the vascular endothelial cells from apoptosis induced by the removal of serum in a concentration-dependent manner | increased the cortical actin ring structure | inhibited the formation of actin stress fibers induced by VEGF | inhibited the formation of actin stress fibers | increased the formation of cortical actin ring structures | very effectively | improved ability of protecting the vascular endothelial cells over SAC-0904 | could be inhibited | restores the activity of occludin decreased by VEGF | inhibiting permeability of the vascular endothelial cells |

Source: patent US8889840B2, “Vascular leakage inhibitor” (Industry-Academic Cooperation Foundation, Yonsei University, priority 2009, dated 2014)
